Experimental data published in patent EP4548907A1 (SkyLab AG, priority 2023, dated 2025).
Several values for one entry are separate records, joined by “and”; a condition that tells them apart may be missing. Equal values may be shown once.

Assays:
Parameters in all cases: species or system bovine
[1] = Experiment 3: surface microhardness recovery of demineralised enamel, aspartic acid combined with different calcium sources; details: single treatment 16 hours at 37°C, solutions pH 6 to 6.5 (excluding controls), n=10
Procedure: Enamel blocks were sectioned from bovine teeth, lapped plane-parallel, and highly polished. The baseline surface microhardness of the enamel samples was measured. The samples were then stratified between the treatment groups based on the baseline surface microhardness values.
The enamel samples were artificially demineralised by immersing them in a demineralisation solution for 60 minutes. Following demineralisation, the surface microhardness of the enamel samples was remeasured.
(§1) The enamel samples in each treatment group were treated with the assigned test products for 16 hours. Following treatment, the surface microhardness of each treated enamel sample was remeasured.
(§2) The percentage of surface microhardness recovery (%SMHR) achieved by the test products was calculated and used to compare the ability of the test products to repair the demineralised enamel samples.
The pH of each solution was adjusted into the pH range of pH 6 to 6.5, using sodium hydroxide or dilute hydrochloric acid (Excluding the positive and negative control). All pH measurements were taken with a calibrated pH electrode (Serial Number: VT1 8048) and an Accumet XI,250 ion meter (Asset Number: UK01200-LAB-15-002).
Approximately 130 enamel blocks (Measuring 4mm x 4mm) were sectioned from bovine incisors and were lapped plano-parallel (both sides) using a Logitech PM5 lapping machine (Asset number: 4F008).
(§3) The enamel surfaces of the samples were machine-polished with 1 micron and 0.3 micron aluminium oxide slurries, using a MetPrep Saphir 550 Polisher (Asset Number: UK01200-1010015-114).
(§4) The surface microhardness of each block was measured at the following time points: • At baseline. • After the demineralisation treatment. • After overnight treatment.
(§5) The surface microhardness of the enamel samples was measured using a Buehler MicroMet 5103 (Asset Number: 4F101) and OmniMet MHT software.
(§6) The Intertek CRS method for measuring the surface microhardness of the samples at each time point has been provided below: • Five Knoop indents • 50 gram load force • 10 second dwell time • X50 objective
(§7) A demineralisation solution was prepared that contained: • ▪ 50 mM Acetic acid • ▪ 2.2 mM Calcium nitrate • ▪ 2.2 mM Potassium phosphate monobasic • ▪ 0.1 ppm Sodium fluoride
The pH of the solution was adjusted to pH 4.5. All pH measurements were taken with a calibrated pH electrode (Serial Number: VT1 8048) and an Accumet XI,250 ion meter (Asset Number: UK01200-LAB-15-002.
The enamel blocks were demineralised by placing the samples into a Sterilin containing 8mL of demineralisation solution per sample. All demineralisation exposures were performed for 60 minutes, in an oven set to 37°C for 60 minutes.
The enamel samples were placed into their assigned test solutions for 16 hours at 37°C, whilst being agitated with a magnetic stirrer. Aquasil Putty was used to attach the 10 enamel blocks in each treatment group to a sample holder with the enamel surfaces of the samples exposed.
Following the removal of the samples from the test product, each enamel block was rinsed with deionised water for 1-2 minutes and sonicated for 10 minutes to remove any loose debris. The enamel samples were then returned to their original containers.
The ability of the test formulations to repair the demineralised enamel samples after a single treatment was assessed by calculating the percentage of surface microhardness recovery values (%SMHR) achieved by each test product.
The formula for calculating the %SMHR values achieved by each treatment is shown below: % SMRH = 100∗[(SMHPost-treatment−SMHPost-demineralisation)/(SMH; Baseline−SMH Post-demineralisation)] [formula]

[2] = Summary of 3 experiments in comparison with negative and positive controls; details: Water (Negative control) 0 units; for Comparison: units better than fluoride / Comparison: units worser than negative control / Comparison: units better than negative control: scale: Fluoride (Positive control) 100 units
Description: Table 10. Summary of 3 experiments in comparison with negative and positive controls

[3] = Experiment 2: surface microhardness recovery of demineralised enamel, aspartic acid with or without tricalcium phosphate; details: single treatment 16 hours at 37°C, solutions pH 6-6.5, n=10
Procedure: Enamel blocks were sectioned from bovine teeth, lapped plano-parallel and highly polished. The baseline surface microhardness of the enamel samples was then measured.
The enamel samples were artificially demineralised by immersing them in demineralisation solution for 60 minutes. Following demineralisation, the surface microhardness of the enamel samples was remeasured. The samples were then stratified between the treatment groups based upon the baseline surface microhardness.
as §1, §2
The pH of each solution was adjusted into the pH range shown in Table 2, using sodium hydroxide or dilute hydrochloric acid. All pH measurements were taken with a calibrated pH electrode (Serial Number: 13-620-631) and either an Accumet XI,250 ion meter (Asset Number: UK01200-LAB-15-002), or an Orion 720 ion meter (Asset Number: 4F064).
Approximately 90 enamel blocks (Measuring 4mm x 4mm) were sectioned from bovine incisors and were lapped plano-parallel (both sides) using a Logitech PM5 lapping machine (Asset number: 4F008).
as §3, §4, §5, §6, §7
The pH of the solution was adjusted to pH 4.5. All pH measurements were taken with a calibrated pH electrode (Serial Number: 13-620-631) and either an Accumet XI,250 ion meter (Asset Number: UK01200-LAB-15-002), or an Orion 720 ion meter (Asset Number: 4F064). […]
The ability of the test formulations to repair the demineralised enamel samples after a single treatment was assessed by calculating the percentage of surface microhardness recovery values (%SMHR) achieved by each test product. […]

[4] = Experiment 1: remineralization of demineralised enamel, surface microhardness (SMH) after single overnight treatment with calcium sources; details: single overnight immersion 16 hours, 37°C; for Mean (%SMR): percentage surface microhardness recovery
Procedure: This in vitro study was designed to compare the remineralization efficacy of the test products, following a single, overnight treatment application.
Bovine enamel blocks were sectioned, machine polished and flattened. The baseline surface microhardness of the enamel samples was measured with a Buehler MicroMet 5103 surface microhardness machine.
Each bovine enamel block was demineralised for 1 hour by immersing the sample at 37°C, in a demineralization solution described by Huang et. al. (2009)^1. Following demineralization, the surface microhardness of each enamel sample was remeasured.
All demineralized enamel samples were subjected to an overnight immersion in the assigned test product, with immersion solutions mixed and heated to 37°C during treatment. Following the overnight immersion, the surface microhardness of the enamel samples was remeasured. The study logistics were designed so that each enamel sample was demineralized and then immersed in the assigned treatment on the same day.
The ability of a single, overnight application of test products and controls to repair enamel lesions was assessed by comparing the percentage surface microhardness recoveries and the changes in surface microhardness for the treated samples.
One hundred and thirty enamel blocks, measuring 4 x 4 mm, were cut from bovine incisors and lapped planar-parallel using a Logitech PM5 lapping machine. The enamel surfaces of the samples were machine-polished using a MetPrep Saphir 550 to a final finish of 0.04 microns. One corner of each block was removed in order to ensure correct orientation on the SMH machine.
The baseline surface microhardness of the enamel samples was measured using a calibrated Buehler MicroMet 5103 microhardness indenter and Knoop diamond indenter tip.
The enamel samples were orientated with the abraded corner in the top right. Baseline surface microhardness indents were placed in the centre of the enamel samples. Five Knoop indents were placed in a vertical line at each timepoint (under a load of 50 g for 10 seconds). Surface imperfections were avoided, and outlying indents replaced.
A demineralization solution was prepared according to the following specifications: • ▪ 50 mM Acetic acid • ▪ 2.2 mM Calcium nitrate • ▪ 2.2 mM Potassium phosphate monobasic • ▪ 0.1 ppm Sodium fluoride • ▪ Final pH of the solution was adjusted to 4.5 with sodium hydroxide.
Enamel samples were mounted onto acetate squares using double-sided tape. Enamel samples were immersed in 8 ml demineralization solution per sample and placed into an oven for 1 hour (37 °C). […]
The post-demineralization surface microhardness of the enamel samples was measured using a calibrated Buehler MicroMet 5103 microhardness indenter and Knoop diamond indenter tip. […]

In the case of N[C@@H](CC(=O)O)C(=O)O [Aspartic acid 0,2% in artificial saliva, Aspartic acid], the “Mean %SMHR Value” [1] is reported as 16,21% and the “Comparison: units better than fluoride” value ([2]; listed as Aspartic acid 0,2% in artifical saliva) is reported as “for 25 units better than fluoride”.

For N[C@@H](CC(=O)O)C(=O)O [Aspartic acid 0.4 %, Aspartic acid], the “Mean %SMHR Value” [1] was -91.74%, the “Mean %SMHR Value” ([1]; listed as 0.4% Aspartic acid) was -92% and the “Comparison: units worser than negative control” value ([2]; listed as Aspartic acid 0,4% in distilled water) was “for 82 units worser than negative control”.

In the case of N[C@@H](CC(=O)O)C(=O)O [Aspartic acid 0.2 % in distilled water, Aspartic acid], the “Mean %SMHR Value” [1] is reported as -87.69%, the “Mean %SMHR Value” ([1]; listed as 0.2% Aspartic acid) is reported as -88% and the “Comparison: units worser than negative control” value [2] is reported as “for 70 units worser than negative control”.

With N[C@@H](CC(=O)O)C(=O)O [Aspartic Acid 0.5 %, L-Aspartic Acid] the “Comparison: units better than negative control” value ([2]; listed as Aspartic acid 0,5% in distilled water) was “for 90 units better than negative control” and the “Mean %SMHR” value [3] was -37% and -37.32%.

With N[C@@H](CC(=O)O)C(=O)O [Aspartic acid 0,1% in artifical saliva, Aspartic acid] the “Comparison: units better than fluoride” value [2] was “for 2 units better than fluoride”.

For N[C@@H](CC(=O)O)C(=O)O [Aspartic Acid 0.1 %, L-Aspartic Acid], the “Comparison: units better than negative control” value [2] was “for 65 units better than negative control” and the “Mean %SMHR” value [3] was 3.19%.

With [F-].[Na+] [1450 ppm F, Sodium Fluoride, reference compound] the “Mean %SMHR Value” [1] was 5.15%, the “Comparison: units” value ([2]; position on the scale) was 100 units and the “Mean (%SMR)” value ([4]; n = 10) was 35.5556%. For the same compound, the “Mean (%SMR)” value ([4]; n = 10, listed as 1450 ppm Fluoride control) was 36%, the “Mean Change in SMH” value ([4]; post-treatment SMH minus demineralisation SMH (Knoop), n = 10) was 25.12 and the “mean SMH increase” value ([4]; rounded values in the text) was 25 HK units. The “Mean %SMHR” value [3] was 14% and the “Mean %SMHR” value ([3]; listed as 1450 ppm Fluoride (Positive control)) was 14.12%.

For N[C@@H](CC(=O)O)C(=O)O [Aspartic acid 0.05 %, Aspartic acid], the “Mean %SMHR Value” [1] was -35.13% and the “Comparison: units better than negative control” value ([2]; listed as 0,05% Aspartic acid) was “for 17 units better than negative control”.
